Reference: paper PMC8688955 (Frontiers in Pharmacology, 2021)
Read-outs that look alike come from different tables or passages of the source.

How the values were obtained:
CP-AMPARs = experiment: Whole-cell patch-clamp of kainate-induced currents in isolated striatal giant interneurons; format: cell-based, Wistar rat; settings: for IC50: read-out: IC50 CP-AMPARs, kainate-induced currents; for CP-AMPARs % inhibition at 100 µM: 100 µM compound, currents induced by 100 µM kainate, mean ± SD, N = 5
Description: All experimental procedures were approved by the Animal Care and Use Committee of the I.M. Sechenov Institute of Evolutionary Physiology and Biochemistry of the Russian Academy of Sciences. Wistar rats (13–19 days old) were anesthetized with sevoflurane and then decapitated. Maximum effort was made to minimize the number of animals used. Brains were removed quickly and cooled to 2–4°C in an ice bath. […] Single neurons were freed from slices by vibrodissociation ([Vorobjev, 1991]). The antagonism of CP-AMPARs was studied on striatal giant interneurons ([Bernard et al., 1997]; [Gotz et al., 1997]), which were identified by their shape and size. […] The antagonism of CI-AMPARs was studied on pyramidal neurons from the CA1 area of the hippocampus.
(§1) Series resistance of about 20 MΩ was compensated by 70–80% and monitored during experiments. Currents were recorded using an EPC-8 amplifier (HEKA Electronics, Lambrecht, Germany), filtered at 5 kHz, sampled, and stored on a personal computer. Drugs were applied using the RSC-200 perfusion system (BioLogic Science Instruments, Claix, France) under computer control. The solution exchange time in the whole-cell mode was 50–60 ms. The extracellular solution contained (in mM) NaCl 143, KCl 5, MgCl2 2.0, CaCl2 2.5, D-glucose 18, and HEPES 10 (pH was adjusted to 7.3 with HCl). The pipette solution contained (in mM) CsF 100, CsCl 40, NaCl 5, CaCl2 0.5, EGTA 5, and HEPES 10 (pH was adjusted to 7.2 with CsOH). Experiments were performed at room temperature (22–24°C). […] Lamotrigine, topiramate, levetiracetam, felbamate, carbamazepine, tiagabin, vigabatrin, zonisamide, and gabapentin were purchased from Tocris Bioscience (Bristol, United Kingdom). Perampanel was from MedChemExpress (Stockholm, Sweden). Kinetics of transient processes of more than 20-ms duration was approximated by exponential functions. Experiments were performed at −80 mV holding voltage. All experimental data are presented as mean ± SD estimated from at least four experiments. Significance of the effects was tested with paired t test. Differences were considered significant at p < 0.05. 3D structures of compounds were calculated by the ZMM software (zmmsoft.ca).

CI-AMPARs [1] = target: T1, CI-AMPARs (Rattus norvegicus, UniProt P19491, Q607R); set-up: method as in Barygin, 2016; settings: ref Barygin, 2016, cited from earlier work
T1 construct: activity against native calcium-permeable AMPA receptors (CP-AMPARs) and calcium-impermeable AMPA receptors (CI-AMPARs); endogenous in cells; host or cells: acutely isolated pyramidal neurons from the CA1 area of Wistar rat hippocampal slices
T1 sequence (P19491 22-883 Q607R): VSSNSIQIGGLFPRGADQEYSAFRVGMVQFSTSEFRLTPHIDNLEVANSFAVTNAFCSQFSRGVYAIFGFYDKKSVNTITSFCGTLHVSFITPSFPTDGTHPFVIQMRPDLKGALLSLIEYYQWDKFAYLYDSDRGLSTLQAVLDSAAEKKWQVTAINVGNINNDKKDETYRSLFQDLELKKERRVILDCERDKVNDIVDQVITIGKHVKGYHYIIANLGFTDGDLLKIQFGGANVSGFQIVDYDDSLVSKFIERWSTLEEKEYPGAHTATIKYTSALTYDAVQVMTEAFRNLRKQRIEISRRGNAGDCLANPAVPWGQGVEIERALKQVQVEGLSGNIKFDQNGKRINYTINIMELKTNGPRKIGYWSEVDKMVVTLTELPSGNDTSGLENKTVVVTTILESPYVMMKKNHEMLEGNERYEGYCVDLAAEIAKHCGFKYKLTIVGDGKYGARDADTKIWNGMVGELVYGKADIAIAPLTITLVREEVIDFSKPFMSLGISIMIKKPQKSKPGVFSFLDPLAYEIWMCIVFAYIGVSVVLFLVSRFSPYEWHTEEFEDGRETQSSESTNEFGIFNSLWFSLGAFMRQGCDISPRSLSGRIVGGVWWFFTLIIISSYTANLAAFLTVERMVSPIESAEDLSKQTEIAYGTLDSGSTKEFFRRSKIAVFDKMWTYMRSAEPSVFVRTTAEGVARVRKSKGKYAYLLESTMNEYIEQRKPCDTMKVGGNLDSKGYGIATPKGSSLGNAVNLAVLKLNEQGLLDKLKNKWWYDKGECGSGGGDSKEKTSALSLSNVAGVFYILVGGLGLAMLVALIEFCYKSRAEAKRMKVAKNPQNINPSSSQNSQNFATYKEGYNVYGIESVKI

CI-AMPARs [2] = target: T1, CI-AMPARs; experiment: Whole-cell patch-clamp of kainate-induced currents in isolated hippocampal CA1 pyramidal neurons; format: cell-based, Wistar rat; settings: for Difference in the % of inhibition in coapplication and preapplication protocols: coapplication with kainate vs preapplication without kainate; for CI-AMPARs % inhibition at 100 µM: 100 µM compound; for CI-AMPARs % inhibition at 100 µM / inhibition at 100 µM: currents induced by 100 µM kainate, −80 mV, mean ± SD, N = 5; for inhibition at 100 µM: read-out: CI-AMPARs % inhibition at 100 µM, 100 µM compound
Description: All experimental procedures were approved by the Animal Care and Use Committee of the I.M. Sechenov Institute of Evolutionary Physiology and Biochemistry of the Russian Academy of Sciences. Wistar rats (13–19 days old) were anesthetized with sevoflurane and then decapitated. Maximum effort was made to minimize the number of animals used. Brains were removed quickly and cooled to 2–4°C in an ice bath. […] The antagonism of CI-AMPARs was studied on pyramidal neurons from the CA1 area of the hippocampus.
as §1, with “The extracellular solution contained (in mM) NaCl 143, KCl 5, MgCl2 2.0, CaCl2 2.5, D-glucose 18, and HEPES 10 (pH was adjusted to 7.3 with HCl).” left out

[3] = system: AMPA and kainate-evoked Ca^2+ uptake; settings: 30 and 100 µM topiramate; ref Poulsen et al., 2004; cited from earlier work
hGluA1-4 receptors = system: hGluA1-4 receptors; set-up: method as in Fukushima et al. (2020); settings: ref Fukushima et al. (2020); cited from earlier work
AMPAR = system: AMPAR; set-up: method as in Dudic and Reiner, 2019; settings: ref Dudic and Reiner, 2019; cited from earlier work
[4] = system: postsynaptic AMPA receptors; set-up: method as in Lee et al., 2008; settings: 30 and 100 µM lamotrigine; ref Lee et al., 2008; cited from earlier work
AMPA receptors = system: AMPA receptors; set-up: method as in Carunchio et al., 2007; settings: 200 µM levetiracetam; ref Carunchio et al., 2007; cited from earlier work
[5] = double-pulse protocol, 30-s pause

N#Cc1ccccc1-c1cc(-c2ccccn2)cn(-c2ccccc2)c1=O [Perampanel]
IC50 (CP-AMPARs): 0.06 ± 0.006 µM
reduction in activity by cyclothiazide (CI-AMPARs [1]; isolated CA1 pyramidal neurons): ca. 20 fold
Activity drop in the presence of cyclothiazide (CI-AMPARs [1]): Yes
Activity drop in the presence of cyclothiazide (CI-AMPARs [1]; listed as perampanel): less active in the presence of cyclothiazide
Activity drop at high (500 µM) kainate concentration (CI-AMPARs [2]): more active in the case of lower kainate concentration and Yes
More active against CI-AMPARs (CI-AMPARs [2]): equipotently inhibited both receptor subtypes and No
time constant τ of the response to testing kainate application in the trapping protocol (CI-AMPARs [2]; 500 nM perampanel, double-pulse protocol, n = 4): 41 ± 12 ms
decrease in the % of inhibition with the increase in agonist concentration (CI-AMPARs [2]; 50 vs 500 µM kainate): 30–40%
Difference in the % of inhibition in coapplication and preapplication protocols (CI-AMPARs [2]): No
Difference in the % of inhibition in coapplication and preapplication protocols (CI-AMPARs [2]; listed as perampanel): equally effective in preapplication and coapplication protocols
Trap in kainate 100 µM (CI-AMPARs [2]; [5]): No
Trap in kainate 500 µM (CI-AMPARs [2]; [5]): No
IC50 (CI-AMPARs [2]; kainate-induced currents): 0.063 ± 0.008 µM

CC1(C)O[C@@H]2[C@@H](CO[C@@]3(COS(N)(=O)=O)OC(C)(C)O[C@@H]23)O1 [Topiramate]
inhibition of AMPA and kainate-evoked Ca^2+ uptake [3]: up to 60%
CP-AMPARs % inhibition at 100 µM (CP-AMPARs; −80 mV): 14 ± 2%
CP-AMPARs % inhibition at 100 µM (CP-AMPARs; −80 mV, listed as topiramate): ≤ 20%
activity against hGluA1-4 receptors (hGluA1-4 receptors): did not find significant activity
CI-AMPARs % inhibition at 100 µM (CI-AMPARs [2]): 12 ± 2%
inhibition at 100 µM (CI-AMPARs [2]): ≤ 20%

O=c1[nH]c2cc([N+](=O)[O-])c([N+](=O)[O-])cc2[nH]c1=O [DNQX]
pH-dependence (AMPAR): Yes ^a
IC50 (CP-AMPARs; Hill equation, −80 mV): 0.31 ± 0.06 µM

Nc1nnc(-c2cccc(Cl)c2Cl)c(N)n1 [Lamotrigine]
CP-AMPARs % inhibition at 100 µM (CP-AMPARs; −80 mV): 13 ± 3%
CP-AMPARs % inhibition at 100 µM (CP-AMPARs; −80 mV, listed as lamotrigine): ≤ 20%
decrease of the amplitude of the currents induced by exogenously applied AMPA [4]: 10%
activity against hGluA1-4 receptors (hGluA1-4 receptors): did not find significant activity
CI-AMPARs % inhibition at 100 µM (CI-AMPARs [2]): 14 ± 5%
inhibition at 100 µM (CI-AMPARs [2]): ≤ 20%

CC[C@@H](C(N)=O)N1CCCC1=O [Levetiracetam]
CP-AMPARs % inhibition at 100 µM (CP-AMPARs; −80 mV): 9 ± 3%
CP-AMPARs % inhibition at 100 µM (CP-AMPARs; −80 mV, listed as levetiracetam): ≤ 20%
decrease of the amplitude of kainate-induced current (AMPA receptors): about 26%
activity against hGluA1-4 receptors (hGluA1-4 receptors): did not find significant activity
CI-AMPARs % inhibition at 100 µM (CI-AMPARs [2]): 6 ± 2%
CI-AMPARs % inhibition at 100 µM (CI-AMPARs [2]; listed as levetiracetam): ≤ 20%
